# Values quoted from earlier work in patent US20210236523A1, “P[…] FOR HEADACHE DISORDERS” (priority 2020, published 2021).
# “Also recorded” adds a separate entry of the source.
# How the values were obtained:
# cluster headache = conditions: et al., cited from earlier work
# 5-HT1 = conditions: cited from earlier work
# 5-HT2B = 5-HT2B (Homo sapiens, UniProt P41595); conditions: cited from earlier work
# 5-HT2A = 5-HT2A (Homo sapiens, UniProt P28223); conditions: cited from earlier work
# dopamine receptor = conditions: cited from earlier work
# Sequence of 5-HT2A (P28223 whole entry): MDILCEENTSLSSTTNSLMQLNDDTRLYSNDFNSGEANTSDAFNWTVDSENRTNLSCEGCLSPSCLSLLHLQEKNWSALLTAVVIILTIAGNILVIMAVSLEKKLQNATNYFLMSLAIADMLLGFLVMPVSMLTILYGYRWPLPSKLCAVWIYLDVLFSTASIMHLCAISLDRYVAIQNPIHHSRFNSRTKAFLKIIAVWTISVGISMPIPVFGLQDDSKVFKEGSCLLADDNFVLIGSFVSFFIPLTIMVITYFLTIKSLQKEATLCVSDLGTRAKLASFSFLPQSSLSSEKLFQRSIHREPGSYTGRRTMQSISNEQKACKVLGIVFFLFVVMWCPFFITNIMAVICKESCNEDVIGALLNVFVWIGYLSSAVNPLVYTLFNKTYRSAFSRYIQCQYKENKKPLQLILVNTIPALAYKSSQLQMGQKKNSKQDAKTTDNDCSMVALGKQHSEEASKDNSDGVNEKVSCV
# Sequence of 5-HT2B (P41595 whole entry, species assumed): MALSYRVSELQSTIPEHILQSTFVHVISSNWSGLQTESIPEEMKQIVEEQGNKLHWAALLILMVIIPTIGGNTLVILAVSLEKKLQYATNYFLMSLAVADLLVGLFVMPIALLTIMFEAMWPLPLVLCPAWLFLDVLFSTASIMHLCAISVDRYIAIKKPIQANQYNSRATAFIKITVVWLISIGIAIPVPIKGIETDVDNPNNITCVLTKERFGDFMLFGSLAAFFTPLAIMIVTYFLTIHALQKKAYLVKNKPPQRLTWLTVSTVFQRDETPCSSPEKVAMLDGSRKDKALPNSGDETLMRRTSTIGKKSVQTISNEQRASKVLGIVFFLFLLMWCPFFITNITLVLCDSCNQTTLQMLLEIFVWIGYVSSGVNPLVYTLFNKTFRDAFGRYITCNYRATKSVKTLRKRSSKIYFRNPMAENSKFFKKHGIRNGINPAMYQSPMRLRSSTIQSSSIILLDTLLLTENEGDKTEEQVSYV
compound,measurement,setting,value
"CCN(CC)C(=O)[C@@H]1C=C2c3cccc4[nH]cc(c34)C[C@H]2N(C)C1 [LSD, lysergic acid diethylamide]",reported effects in cluster headache,"cluster headache; Sewell, 2006, Schindler et al., 2015","stop acute cluster attacks, terminate cluster cycles, and induce and prolong remission from cluster headache"
"CCN(CC)C(=O)[C@@H]1C=C2c3cccc4[nH]c(Br)c(c34)C[C@H]2N(C)C1 [BOL-148, 2-bromo-lysergic acid diethylamide]",effect on cluster headache cycle and attacks,"cluster headache; three single oral doses of 30 μg/kg, Karst, 2010",either break a cluster headache cycle or considerably improve the frequency and intensity of attacks
CN(C)CCc1c[nH]c2cccc(O)c12 [psilocin],affinity for 5-HT1,5-HT1,low affinity
same,affinity for 5-HT2B,5-HT2B,high affinity
same,affinity for 5-HT2A,5-HT2A,high affinity; also recorded: modest affinity
same,effect on the dopamine receptor,dopamine receptor,no effect
